Assay results as given in patent US11214803B2, “Modulators of YAP1 expression” (Ionis Pharmaceuticals, Inc., priority 2019, dated 2022).
Strand notation (5' to 3'): a small letter for the sugar, then the base; units joined by * are phosphorothioate-linked, units joined directly phosphodiester-linked; [ ] holds rarer units or linkages, { } end groups; capitals alone tell only the bases. k = constrained ethyl (cEt); [5mC] = 5-methylcytosine; d = 2'-deoxy (DNA)

Tested on: Yap1 mRNA
Experiment: Dose-dependent inhibition of human Yap1 in A-431 cells (Example 6, 5,000 cells per well, RTS4814)
Assay type: cell-based
Conditions: for % UTC 148 nM / % UTC 444 nM / % UTC 1333 nM / % UTC 4000 nM: approximately 48 hours; for Yap1 mRNA, % UTC: 48 hours
Procedure: Modified oligonucleotides described in the studies above were tested at various doses in A-431 cells. Cultured A-431 cells at a density of 5,000 cells per well were treated using free uptake with modified oligonucleotides diluted to concentrations described in the tables below. After approximately 48 hours, Yap1 mRNA levels were measured as previously described using the Human Yap1 primer-probe set RTS4814. Yap1 mRNA levels were normalized to total RNA content, as measured by RIBOGREEN®. Results are presented in the tables below as percent control of the amount of Yap1 mRNA relative to untreated control cells (% UTC). IC50s were calculated using a linear regression on a log/linear plot of the data in excel.

[1] = Table 54, A-431 cells, Yap1 mRNA, linear regression on a log/linear plot
[2] = Table 54, A-431 cells, free uptake, 148 nM, RTS4814
[3] = Table 54, A-431 cells, free uptake, 444 nM, RTS4814
[4] = Table 54, A-431 cells, free uptake, 1333 nM, RTS4814
[5] = Table 54, A-431 cells, free uptake, 4000 nM, RTS4814
[6] = Table 53, A-431 cells, Yap1 mRNA, linear regression on a log/linear plot
[7] = Table 53, A-431 cells, free uptake, 148 nM, RTS4814
[8] = Table 53, A-431 cells, free uptake, 444 nM, RTS4814
[9] = Table 53, A-431 cells, free uptake, 1333 nM, RTS4814
[10] = Table 53, A-431 cells, free uptake, 4000 nM, RTS4814

Substance	IC50 [1] [nM]	% UTC 148 nM [2] [% UTC]	% UTC 444 nM [3] [% UTC]	% UTC 1333 nM [4] [% UTC]	% UTC 4000 nM [5] [% UTC]	IC50 [6] [nM]	% UTC 148 nM [7] [% UTC]	% UTC 444 nM [8] [% UTC]	% UTC 1333 nM [9] [% UTC]	% UTC 4000 nM [10] [% UTC]	Yap1 mRNA, % UTC (Table 55, 148 nM, free uptake, A-431 cells 5,000 cells per well, RTS4814) [% UTC]	Yap1 mRNA, % UTC (Table 55, 444 nM, free uptake, A-431 cells 5,000 cells per well, RTS4814) [% UTC]	Yap1 mRNA, % UTC (Table 55, 1333 nM, free uptake, A-431 cells 5,000 cells per well, RTS4814) [% UTC]	Yap1 mRNA, % UTC (Table 55, 4000 nM, free uptake, A-431 cells 5,000 cells per well, RTS4814) [% UTC]	IC50 (Table 55, A-431 cells 5,000 cells per well, free uptake, RTS4814) [nM]
715414 (kA*kA*k[5mC]*dA*dT*dG*d[5mC]*dT*dG*dT*dG*dG*dA*kG*kT*k[5mC]; antisense) [compound 715414]	> 4000	91	91	102	67										
715423 (k[5mC]*k[5mC]*kA*dT*dG*dT*dT*dG*dT*dT*dG*dT*d[5mC]*kT*kG*kA; antisense) [compound 715423]						> 4000	83	91	80	57					
715433 (kT*kG*kT*dT*d[5mC]*dT*dT*dA*dT*dG*dG*dT*dT*kT*kA*kT; antisense) [compound 715433]						2500	87	72	65	40					
715434 (kT*k[5mC]*kT*dT*dG*dT*dT*d[5mC]*dT*dT*dA*dT*dG*kG*kT*kT; antisense) [compound 715434]						2800	84	69	64	43					
715435 (kG*kG*kT*d[5mC]*dT*dT*dG*dT*dT*d[5mC]*dT*dT*dA*kT*kG*kG; antisense) [compound 715435]	3400	80	67	61	48										
715471 (kT*kA*kT*d[5mC]*dT*dA*dG*d[5mC]*dT*dT*dG*dG*dT*kG*kG*k[5mC]; antisense) [compound 715471]	> 4000	82	103	105	79										
715478 (kA*k[5mC]*k[5mC]*dA*dT*dT*dA*dT*dT*dA*d[5mC]*dT*d[5mC]*k[5mC]*kT*kG; antisense) [compound 715478]	600	72	59	31	18	400	70	47	29	16	76	56	32	18	600
715479 (kA*kA*kA*d[5mC]*d[5mC]*dA*dT*dT*dA*dT*dT*dA*d[5mC]*kT*k[5mC]*k[5mC]; antisense) [compound 715479]						> 4000	98	80	77	64					
715486 (kT*kA*k[5mC]*dT*dT*d[5mC]*dA*dT*dA*dG*d[5mC]*dT*dT*kA*kT*kA; antisense) [compound 715486]						> 4000	93	89	81	56					
715490 (k[5mC]*k[5mC]*kA*dA*d[5mC]*dT*dA*dT*dT*dA*d[5mC]*dT*dT*k[5mC]*kA*kT; antisense) [compound 715490]						4100	98	89	76	43					
